# According to patent US10584156B2, “Insulin analogues with a glucose-regulated conformational switch” (CASE WESTERN RESERVE UNIVERSITY, priority 2015, dated 2020):
# Assay: EDTA cobalt-sequestration assay of R6 insulin hexamer disassembly, with or without glucose
# Assay type: physicochemical
# Settings: 25 mM glucose vs none, pH 7.4, large excess of EDTA, phenol-stabilized Co^2+ R6 hexamer
# Excerpt: Glucose-responsive rates of disassembly were investigated using a spectroscopy assay in which the visible absorption spectrum of a cobalt (Co^2+)-substituted insulin hexamer was obtained in the presence of phenol as an R6 hexamer.
# This band arises front the unfilled d-shell electrons of the cobalt ion and is a specific signature of a tetrahedral coordination environment. Addition of a large excess of the chelating agent ethylene-diamine-tetra-acetic acid (EDTA) leads to progressive sequestration of the metal ion (in a colorless octahedral complex) and so provides a rapid and convenient probe of the kinetics of hexamer disassembly.
# To this end, insulin analogues were made 0.6 mM in a buffer containing 50 mM Tris-HCl (pH 7.4), 50 mM phenol, 0.2 mM CoCl2, and 2 mM NaSCN in the absence of glucose or in the presence of 25 mM glucose. The sample pH was in each case 7.4, and samples were incubated overnight at room temperature prior to the studies to ensure that a conformational equilibrium was reached. Spectra (400-750 nm) were obtained to monitor tetrahedral Co^2+ coordination with its signature d-d absorption band at or near 574 nm. To determine the rate of Co^2+ release from the hexamers, metal-ion sequestration was initiated at 33° C. […] Attenuation of the 574-nm absorption band was monitored on a time scale of seconds to hours. […]
substance,measurement,setting,value
"wild-type human insulin: Human insulin, A chain SEQ ID NO: 2 and B chain SEQ ID NO: 3",difference in rate of hexamer disassembly (loss of R-state-specific d-d band) in presence versus absence of glucose,,No difference was observed
same,difference in rate of hexamer disassembly (loss of R-state-specific d-d band) in presence versus absence of glucose,listed as Wild-type insulin,the same rate of loss
